Experimental data taken from ChEMBL document CHEMBL1667721, “Isolation, structure elucidation, and cytotoxic evaluation of furanonaphthoquinones from in vitro plantlets and cultures of Streptocarpus dunnii” (J Nat Prod, 2011).
pIC50: −log10 of the molar value.

Columns and labels:
MIA PaCa-2 [1] = test: Cytotoxicity against human MIAPaCa2 cells after 6 days; conditions: for pIC50: Homo sapiens, MIA PaCa-2, 6 days, read-out: IC50
BT-474 [2] = test: Cytotoxicity against human BT474 cells after 6 days; conditions: for pIC50: Homo sapiens, BT-474, 6 days, read-out: IC50
[3] = Cytotoxicity against human Hs 578T cells after 6 days; conditions: for pIC50: Homo sapiens, Hs-578T, 6 days, read-out: IC50
MCF7 [4] = test: Cytotoxicity against human MCF7 cells after 6 days; conditions: for pIC50: Homo sapiens, MCF7, 6 days, read-out: IC50
BT-474 [5] = test: Cytotoxicity against human BT474 cells after 24 hrs; format: functional, cell-based
MCF7 [6] = test: Cytotoxicity against human MCF7 cells after 24 hrs; format: functional, cell-based
[7] = Cytotoxicity against human Hs 578T cells after 24 hrs; format: functional, cell-based
MIA PaCa-2 [8] = test: Cytotoxicity against human MIAPaCa2 cells after 24 hrs; format: functional, cell-based

C[C@H]1OC2=C(C(=O)c3ccccc3C2=O)C1(C)C
pIC50 (MIA PaCa-2 [1]): 5.34 | pIC50 (BT-474 [2]): 5.35 | pIC50 [3]: < 5.00 | pIC50 (MCF7 [4]): 5.24

C[C@H]1OC2=C(C(=O)c3ccc(O)cc3C2=O)C1(C)C
pIC50 (MIA PaCa-2 [1]): 5.17 | pIC50 (BT-474 [2]): 5.31 | pIC50 [3]: < 5.00 | pIC50 (MCF7 [4]): 5.24

Cc1ccc2c(c1O)C(=O)c1ccccc1C2=O
IC50 (BT-474 [5]): Not Active | IC50 (MCF7 [6]): Not Active | IC50 [7]: Not Active | IC50 (MIA PaCa-2 [8]): Not Active

COc1cc2c(cc1O)C(=O)C1=C(O[C@H](C)C1(C)C)C2=O
IC50 (MIA PaCa-2 [1]; mia paca-2): Not Active | IC50 (BT-474 [2]; bt-474): Not Active | IC50 ([3]; hs-578t): Not Active | IC50 (MCF7 [4]; mcf7): Not Active

C[C@H]1OC2=C(C(=O)C(=O)c3ccccc32)C1(C)C [(3R)-DUNNIONE]
pIC50 (MIA PaCa-2 [1]): 5.72 | pIC50 (BT-474 [2]): 6.00 | pIC50 [3]: 5.30 | pIC50 (MCF7 [4]): 5.64
